From US20230103631A1, “PEPTIDES AS SELECTIVE GIP RECEPTOR AGONISTS” (Sanofi, priority 2020, published 2023)
*1 amine or outer side, *2 acyl side, *3 side chain or, on linkers, in order; H or OH if unused. Where a SMILES comes first, the peptide text is derived from it. Side-chain parts run from the residue outwards. [ ]: non-standard residue; d: D form. The star is where a group is joined. C20 diacid = O=C(O)CCCCCCCCCCCCCCCCCCC(=O)*; C18 diacid = O=C(O)CCCCCCCCCCCCCCCCC(=O)*; γGlu = O=C(O)[C@H](CCC(=O)[*:2])N[*:1]; AEEA = NCCOCCOCC(=O)O; Aib = CC(C)(N)C(=O)O; Sar = CNCC(=O)O

Columns and labels:
physchem = format: physicochemical; details: for Soluble amount: 24 h, pH 7.4; for solubility at 24 h: pH 7.4, Soluble amount
Method: Prior to the solubility measurement of a peptide batch, its purity was determined through UHPLC/MS. […] Therefore, solutions from solid samples were prepared in a buffer system with a concentration of 10 mg/ml compound based on the previously determined % purity: Solubility buffer system A) 100 mM phosphate buffer pH 7.4 […] Solubility buffer system C) 100 mM phosphate buffer pH 7.4, 2.7 mg/ml m-cresol UHPLC-UV was performed after 1 h of gentle agitation and storage at 5° C. over night (24 h) from the supernatant, which was obtained after 15 min of centrifugation at 2500 RCF (relative centrifugal acceleration). […] The different UV extinction coefficients of sample and reference peptide were calculated based on the different amino acid sequences and considered in the concentration calculation. The analytical method used was Analytical UHPLC Method A. Peptide samples were prepared in solubility buffer system A or C and solubility was assessed as described in Methods.

[1] = molecular target: human GLP-1 receptor (hGLP-1R) (Homo sapiens, UniProt P43220); test: cAMP HTRF assay, HEK-293 cell line over-expressing human GLP-1 receptor; format: cell-based; details: HEK-293, cAMP, 0% HSA
Chain of human GLP-1 receptor (hGLP-1R) (P43220 24-463): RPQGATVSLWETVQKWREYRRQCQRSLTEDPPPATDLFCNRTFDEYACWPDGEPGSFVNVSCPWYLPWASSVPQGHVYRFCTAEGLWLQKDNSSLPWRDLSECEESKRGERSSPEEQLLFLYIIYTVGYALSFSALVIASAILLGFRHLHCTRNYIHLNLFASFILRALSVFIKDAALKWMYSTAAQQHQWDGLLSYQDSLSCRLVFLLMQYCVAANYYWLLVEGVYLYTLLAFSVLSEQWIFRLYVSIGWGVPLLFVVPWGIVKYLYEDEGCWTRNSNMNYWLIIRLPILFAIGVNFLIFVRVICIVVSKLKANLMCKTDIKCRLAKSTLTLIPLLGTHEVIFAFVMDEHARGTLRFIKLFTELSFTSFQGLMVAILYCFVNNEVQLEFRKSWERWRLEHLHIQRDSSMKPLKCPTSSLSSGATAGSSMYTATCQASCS
Method: Each vial contained 1.8 ml cells. The vials were slowly frozen to −80° C. in isopropanol, and then transferred in liquid nitrogen for storage.
Prior to their use, frozen cells were thawed quickly at 37° C. and washed (5 min at 900 rpm) with 20 ml cell buffer (1× HBSS; 20 mM HEPES, plus 0.1% HSA if indicated in Example conditions).
For measurement of cAMP generation, 5 μl cells (final 5000 cells/well) and 5 μl of test compound were added to a 384-well plate, followed by incubation for 30 min at room temperature.
The cAMP generated was determined using a kit from Cisbio Corp. based on HTRF (Homogenous Time Resolved Fluorescence). The cAMP assay was performed according to manufacturer's instructions (Cisbio).

C57Bl/6 mice = test: Intraperitoneal glucose tolerance test (ipGTT) after s.c. treatment; format: in vivo; details: 10 nmol/kg s.c. 6 h before i.p. glucose load, mean ± SEM
Method: Healthy, normoglycemic male C57Bl/6NCrl mice were ordered in an age of 9-10 weeks with an approximate body weight (BW) of 24-26 g at Charles River Laboratories Deutschland GmbH, 97633 Sulzfeld, Germany. Mice were shipped grouped housed (N=4 per cage), acclimatized for one week and remained grouped housed throughout the entire study. Mice were housed under vivarium conditions that included a 12 h light/dark cycle (light phase 06:00 AM-06:00 PM), mean room temperature of 22±2° C. and a relative mean humidity of 55±10%. All animals had free access to food (Ssniff R/M-H diet) and water prior to study start.
The primary objective of the study was to investigate the compound-induced lowering of the blood glucose excursion and improvement of glucose tolerance in a mouse ipGTT setting and therefore the primary parameters included blood glucose, delta blood glucose (normalized to the time point just prior to the i.p. glucose challenge, t=0 h) and their respective calculated area under curve (AUC) values. The study was performed as an acute, single dosing study with 6 groups and the male animals were randomly divided to groups of 7-8 mice per group. Dose-dependent pharmacodynamic blood glucose lowering efficacy of the GIPR agonist was analyzed with s.c. injections 6 h before the i.p. glucose load in the dose range from 3 up to 100 nmol/kg and compared to the vehicle group as well as the semaglutide positive control at a dose of 10 nmol/kg.
In more detail, mice were fed overnight and on the following morning brought to the lab with food removed but ad libitum access to water. Blood samplings (5 μl) were performed at: −6.5, −0.5, 0, 0.17, 0.5, 1, 1.5, 2 and 3 h before and after the glucose bolus of 1 g glucose per kg BW i.p. given at time point t=0 h. On time point t=0.17 h an additional K-EDTA plasma sample from 60-80 μl blood was taken for plasma insulin analysis. Blood was withdrawn from the tip of the tail. The GIPR agonist and semaglutide were dissolved in 10 mM phosphate buffer pH 7.4 with 2.3% glycerol and 0.01% polysorbat 20 (vehicle) and s.c. treatment was performed −6 h before the glucose load (t=0 h) using an injection volume of 5 ml/kg. The injection solutions were freshly prepared prior to the experiment using sterile filtered vehicle solution.
Blood glucose was determined enzymatically (Gluco-quant® Glucose/HK kit on Roche/Hitachi 912). Plasma insulin was determined using a mouse/rat insulin sandwich immunoassay kit from Meso Scale Discovery.
All data were collected using Microsoft Excel. None of the data were collected online. The results are expressed as means±standard error of the mean (SEM). As primary study parameters, blood glucose, baseline (time point t=0 h) subtracted delta blood glucose and their respective calculated area under curve (AUC) values were determined. The respective AUC data were calculated using the trapezoid rule for the time period t=0 h until t=2 h.
The statistical analysis of the ipGTT blood glucose excursion data response following subcutaneous compound or vehicle treatment was performed on the calculated AUC values of blood glucose raw data as well as the calculated AUC values for baseline subtracted delta blood glucose data. In a first step the Levene's test was used to test for equality of variances between groups. Where Levene's test was significant (p s 0.05), a rank transformation of the calculated AUC data was applied to stabilize the variances before ANOVA analysis was conducted. Where Levene's test was not significant (p>0.05) ANOVA was conducted without prior rank transformation. In a second step a One-way ANOVA analysis for factor treatment followed by Dunnett's multiple comparisons test vs. vehicle group was used to test for statistical differences. Different levels of significance were defined as *=p<0.05, **=p<0.001, ***=p<0.0001. All analyses were performed using SAS (version 9.4) under Linux via the interface software EverSt@t V6.1. […]

Compound	Soluble amount (physchem)	solubility at 24 h (physchem)	EC50 [1]	Incremental blood glucose concentration AUCi (C57Bl/6 mice; vehicle +4.93 ± 0.324)	Blood glucose concentration AUC (C57Bl/6 mice; vehicle +22.15 ± 0.662)
CC[C@H](C)[C@H](NC(=O)[C@H](Cc1ccccc1)NC(=O)[C@H](CCC(=O)O)NC(=O)[C@H](CCC(=O)O)NC(=O)[C@H](CCC(N)=O)NC(=O)[C@H](Cc1c[nH]cn1)NC(=O)[C@@H](NC(=O)[C@H](CCCNC(=N)N)NC(=O)[C@H](CC(=O)O)NC(=O)[C@H](CCCCNC(=O)COCCOCCNC(=O)COCCOCCNC(=O)CC[C@H](NC(=O)CC[C@H](NC(=O)CCCCCCCCCCCCCCCCCCC(=O)O)C(=O)O)C(=O)O)NC(=O)C(C)(C)NC(=O)[C@@H](NC(=O)[C@H](CO)NC(=O)[C@H](CC(C)C)NC(=O)[C@H](CC(=O)O)NC(=O)[C@H](CO)NC(=O)[C@@H](NC(=O)[C@H](Cc1ccccc1)NC(=O)[C@@H](NC(=O)CNC(=O)[C@H](CCC(=O)O)NC(=O)C(C)(C)NC(=O)[C@@H](N)Cc1ccc(O)cc1)[C@@H](C)O)[C@@H](C)CC)[C@@H](C)CC)[C@@H](C)CC)C(=O)N[C@@H](CCC(=O)O)C(=O)N[C@@H](Cc1c[nH]c2ccccc12)C(=O)N[C@@H](CC(C)C)C(=O)N[C@@H](CC(C)C)C(=O)N[C@@H](C)C(=O)N[C@@H](CCC(N)=O)C(=O)NCC(=O)N1CCC[C@H]1C(=O)N[C@@H](CO)C(=O)N[C@@H](CO)C(=O)NCC(=O)N[C@@H](C)C(=O)N1CCC[C@H]1C(=O)N1CCC[C@H]1C(=O)N1CCC[C@H]1C(=O)N[C@@H](CO)C(N)=O [SEQ ID NO: 15, H2N-Y-Aib-E-G-T-F-I-S-D-I-S-I-Aib-K[{AEEA}2-{gGlu}2-C20OH]-DRIHQEEFIEWILAQGPSSGAPPPS-NH2] (H-Y[Aib]EGTFISDLSI[Aib]K([AEEA-AEEA-γGlu-γGlu-C20 diacid])DRIHQEEFIEWLLAQGPSSGAPPPS-NH2)	>9.2 mg/mL	> 10.3 mg/mL	> 10 nM		
CC[C@H](C)[C@H](NC(=O)[C@H](Cc1ccccc1)NC(=O)[C@H](CCC(=O)O)NC(=O)[C@H](CCC(=O)O)NC(=O)[C@H](CCC(N)=O)NC(=O)[C@H](Cc1c[nH]cn1)NC(=O)[C@@H](NC(=O)[C@H](CCCNC(=N)N)NC(=O)[C@H](CC(=O)O)NC(=O)[C@H](CCCCNC(=O)CNC(=O)CNC(=O)CNC(=O)CC[C@H](NC(=O)CCCCCCCCCCCCCCCCC(=O)O)C(=O)O)NC(=O)C(C)(C)NC(=O)[C@@H](NC(=O)[C@H](CO)NC(=O)[C@H](CC(C)C)NC(=O)[C@H](CC(=O)O)NC(=O)[C@H](CO)NC(=O)[C@@H](NC(=O)[C@H](Cc1ccccc1)NC(=O)[C@@H](NC(=O)CNC(=O)[C@H](CCC(=O)O)NC(=O)C(C)(C)NC(=O)[C@@H](N)Cc1ccc(O)cc1)[C@@H](C)O)[C@@H](C)CC)[C@@H](C)CC)[C@@H](C)CC)C(=O)N[C@@H](CCC(=O)O)C(=O)N[C@@H](Cc1c[nH]c2ccccc12)C(=O)N[C@@H](CC(C)C)C(=O)N[C@@H](CC(C)C)C(=O)N[C@@H](C)C(=O)N[C@@H](CCC(N)=O)C(=O)NCC(=O)N1CCC[C@H]1C(=O)N[C@@H](CO)C(=O)N[C@@H](CO)C(=O)NCC(=O)N[C@@H](C)C(=O)N1CCC[C@H]1C(=O)N1CCC[C@H]1C(=O)N1CCC[C@H]1C(=O)N[C@@H](CO)C(N)=O [SEQ ID NO: 16, H2N-Y-Aib-E-G-T-F-I-S-D-I-S-I-Aib-K[{Gly}3-gGlu-C18OH]-DRIHQEEFIEWILAQGPSSGAPPPS-NH2] (H-Y[Aib]EGTFISDLSI[Aib]K([Gly-Gly-Gly-γGlu-C18 diacid])DRIHQEEFIEWLLAQGPSSGAPPPS-NH2)	>9.9 mg/mL	> 10 mg/mL	> 10 nM		
CC[C@H](C)[C@H](NC(=O)[C@H](Cc1ccccc1)NC(=O)[C@H](CCC(=O)O)NC(=O)[C@H](CCC(=O)O)NC(=O)[C@H](CCC(N)=O)NC(=O)[C@H](Cc1c[nH]cn1)NC(=O)[C@@H](NC(=O)[C@H](CCCNC(=N)N)NC(=O)[C@H](CC(=O)O)NC(=O)[C@H](CCCCNC(=O)CN(C)C(=O)CN(C)C(=O)CN(C)C(=O)CC[C@H](NC(=O)CCCCCCCCCCCCCCCCC(=O)O)C(=O)O)NC(=O)C(C)(C)NC(=O)[C@@H](NC(=O)[C@H](CO)NC(=O)[C@H](CC(C)C)NC(=O)[C@H](CC(=O)O)NC(=O)[C@H](CO)NC(=O)[C@@H](NC(=O)[C@H](Cc1ccccc1)NC(=O)[C@@H](NC(=O)CNC(=O)[C@H](CCC(=O)O)NC(=O)C(C)(C)NC(=O)[C@@H](N)Cc1ccc(O)cc1)[C@@H](C)O)[C@@H](C)CC)[C@@H](C)CC)[C@@H](C)CC)C(=O)N[C@@H](CCC(=O)O)C(=O)N[C@@H](Cc1c[nH]c2ccccc12)C(=O)N[C@@H](CC(C)C)C(=O)N[C@@H](CC(C)C)C(=O)N[C@@H](C)C(=O)N[C@@H](CCC(N)=O)C(=O)NCC(=O)N1CCC[C@H]1C(=O)N[C@@H](CO)C(=O)N[C@@H](CO)C(=O)NCC(=O)N[C@@H](C)C(=O)N1CCC[C@H]1C(=O)N1CCC[C@H]1C(=O)N1CCC[C@H]1C(=O)N[C@@H](CO)C(N)=O [SEQ ID NO: 17, H2N-Y-Aib-E-G-T-F-I-S-D-I-S-I-Aib-K[{N-MeGly}3-gGlu-C18OH]-DRIHQEEFIEWILAQGPSSGAPPPS-NH2] (H-Y[Aib]EGTFISDLSI[Aib]K([Sar-Sar-Sar-γGlu-C18 diacid])DRIHQEEFIEWLLAQGPSSGAPPPS-NH2)	>11.8 mg/mL	> 10.9 mg/mL	> 10 nM		
semaglutide [reference compound]				+1.15 ± 0.255 mmol/L* 0-2 h	+10.21 ± 0.503 mmol/L* 0-2 h
